The numbers were not newly measured in patent US20180128811A1 (JNC Corporation, priority 2012, published 2018), which cites them from elsewhere.

The conditions of the data set: small doses (about less than 250 mg), first-order kinetics; cited from earlier work.

In the case of `CC(=O)Oc1ccccc1C(=O)O` [aspirin, acetylsalicylic acid], the Elimination half-life entry is recorded as “about 4 hours”.
